Results: ChEMBL document CHEMBL2086238, “Identification of ETP-46321, a potent and orally bioavailable PI3K α, δ inhibitor” (Bioorg Med Chem Lett, 2012)

Assays:
[1] = target: Ribosomal protein S6 kinase alpha-1 (Homo sapiens) (UniProt Q15418); test: Inhibition of RPS6KA1 at 1 uM
[2] = target: Fibroblast growth factor receptor 1 (Homo sapiens) (UniProt P11362); test: Inhibition of FGFR1 at 5 uM
[3] = target: Tyrosine-protein kinase JAK2 (Homo sapiens) (UniProt O60674); test: Inhibition of JAK2 at 5 uM
CYP3A4 = CYP3A4 (Homo sapiens, UniProt P08684); test: Inhibition of CYP3A4 at 10 uM; assay type: ADME
[4] = target: RAC-alpha serine/threonine-protein kinase (Homo sapiens) (UniProt P31749); test: Inhibition of AKT1 at 1 uM
[5] = target: Casein kinase I isoform alpha (Homo sapiens) (UniProt P48729); test: Inhibition of CK1alpha1 at 1 uM
[6] = target: Hepatocyte growth factor receptor (Homo sapiens) (UniProt P08581); test: Inhibition of MET at 1 uM
[7] = target: Serine/threonine-protein kinase PAK 1 (Homo sapiens) (UniProt Q13153); test: Inhibition of PAK1 at 1 uM
[8] = target: Insulin-like growth factor 1 receptor (Homo sapiens) (UniProt P08069); test: Inhibition of IGF1R at 1 uM
[9] = system: Serine/threonine-protein kinase B-raf (Homo sapiens), P15056 [V600E]; test: Inhibition of BRAF V600E mutant at 1 uM
[10] = Inhibition of PDGFR at 5 uM
[11] = target: Receptor-type tyrosine-protein kinase FLT3 (Homo sapiens) (UniProt P36888); test: Inhibition of FLT3 at 1 uM
[12] = target: Serine/threonine-protein kinase pim-1 (Homo sapiens) (UniProt P11309); test: Inhibition of PIM1 at 1 uM
CYP2D6 = CYP2D6 (Homo sapiens, UniProt P10635); test: Inhibition of CYP2D6 at 10 uM; assay type: ADME
[13] = target: Focal adhesion kinase 1 (Homo sapiens) (UniProt Q05397); test: Inhibition of FAK at 1 uM
[14] = Stability in mouse liver microsomes at 1 uM incubated for 15 mins; assay type: ADME, Microsome; details: read-out: Stability
[15] = target: T1, Serine/threonine-protein kinase Sgk1 (Homo sapiens) (UniProt O00141); test: Inhibition of SGK1 at 5 uM
T1 sequence (whole entry): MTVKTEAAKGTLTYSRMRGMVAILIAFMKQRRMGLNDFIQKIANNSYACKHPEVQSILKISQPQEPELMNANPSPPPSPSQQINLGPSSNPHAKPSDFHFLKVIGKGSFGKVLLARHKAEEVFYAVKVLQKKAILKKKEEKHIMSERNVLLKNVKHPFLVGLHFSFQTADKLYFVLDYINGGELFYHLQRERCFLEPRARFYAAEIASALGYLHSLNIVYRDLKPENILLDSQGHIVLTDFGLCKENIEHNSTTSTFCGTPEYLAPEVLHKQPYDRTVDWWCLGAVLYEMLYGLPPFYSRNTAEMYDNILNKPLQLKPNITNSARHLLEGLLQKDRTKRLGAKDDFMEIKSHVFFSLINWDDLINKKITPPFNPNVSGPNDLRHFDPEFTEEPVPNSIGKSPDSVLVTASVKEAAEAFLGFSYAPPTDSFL

[16] = Inhibition of PDGFR at 1 uM
[17] = target: Serine/threonine-protein kinase mTOR (Homo sapiens, UniProt P42345); test: Inhibition of mTOR
CYP2C9 = CYP2C9 (Homo sapiens, UniProt P11712); test: Inhibition of CYP2C9 at 10 uM; assay type: ADME
[18] = target: T2, Serine/threonine-protein kinase 4 (Homo sapiens) (UniProt Q13043); test: Inhibition of MST1 at 5 uM
T2 sequence (whole entry): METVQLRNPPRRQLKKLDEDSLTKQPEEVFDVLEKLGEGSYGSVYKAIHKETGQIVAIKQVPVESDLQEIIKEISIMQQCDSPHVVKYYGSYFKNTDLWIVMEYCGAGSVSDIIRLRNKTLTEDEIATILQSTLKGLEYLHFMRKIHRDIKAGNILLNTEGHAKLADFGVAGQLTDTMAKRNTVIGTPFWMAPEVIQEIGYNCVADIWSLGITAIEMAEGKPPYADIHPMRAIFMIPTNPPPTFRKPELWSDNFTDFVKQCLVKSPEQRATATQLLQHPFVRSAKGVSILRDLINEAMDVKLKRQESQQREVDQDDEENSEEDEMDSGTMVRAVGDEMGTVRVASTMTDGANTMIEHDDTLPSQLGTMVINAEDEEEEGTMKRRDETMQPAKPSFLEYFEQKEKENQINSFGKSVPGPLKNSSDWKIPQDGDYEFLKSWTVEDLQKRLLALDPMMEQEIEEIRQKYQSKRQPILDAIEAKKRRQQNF

[19] = target: Insulin receptor (Homo sapiens) (UniProt P06213); test: Inhibition of INSR at 1 uM
[20] = target: Insulin receptor (Homo sapiens) (UniProt P06213); test: Inhibition of INSR at 5 uM
[21] = target: Ribosomal protein S6 kinase alpha-1 (Homo sapiens) (UniProt Q15418); test: Inhibition of RPS6KA1 at 5 uM
[22] = target: Serine/threonine-protein kinase PAK 1 (Homo sapiens) (UniProt Q13153); test: Inhibition of PAK1 at 5 uM
[23] = target: Serine/threonine-protein kinase pim-2 (Homo sapiens) (UniProt Q9P1W9); test: Inhibition of PIM2 at 1 uM
[24] = target: Epidermal growth factor receptor (Homo sapiens) (UniProt P00533); test: Inhibition of EGFR at 5 uM
[25] = target: Serine/threonine-protein kinase pim-2 (Homo sapiens) (UniProt Q9P1W9); test: Inhibition of PIM2 at 5 uM
[26] = target: Focal adhesion kinase 1 (Homo sapiens) (UniProt Q05397); test: Inhibition of FAK at 5 uM
[27] = target: T2, Serine/threonine-protein kinase 4 (Homo sapiens); test: Inhibition of MST1 at 1 uM
[28] = target: Phosphatidylinositol 4,5-bisphosphate 3-kinase catalytic subunit alpha isoform (Homo sapiens, UniProt P42336); test: Inhibition of PI3Kalpha in human U2OS cells assessed as inhibition of AKT Ser 473 phosphorylation by Western blot; assay type: cell-based
[29] = target: T1, Serine/threonine-protein kinase Sgk1 (Homo sapiens); test: Inhibition of SGK1 at 1 uM

Sequence of Hepatocyte growth factor receptor (Homo sapiens) (P08581 whole entry): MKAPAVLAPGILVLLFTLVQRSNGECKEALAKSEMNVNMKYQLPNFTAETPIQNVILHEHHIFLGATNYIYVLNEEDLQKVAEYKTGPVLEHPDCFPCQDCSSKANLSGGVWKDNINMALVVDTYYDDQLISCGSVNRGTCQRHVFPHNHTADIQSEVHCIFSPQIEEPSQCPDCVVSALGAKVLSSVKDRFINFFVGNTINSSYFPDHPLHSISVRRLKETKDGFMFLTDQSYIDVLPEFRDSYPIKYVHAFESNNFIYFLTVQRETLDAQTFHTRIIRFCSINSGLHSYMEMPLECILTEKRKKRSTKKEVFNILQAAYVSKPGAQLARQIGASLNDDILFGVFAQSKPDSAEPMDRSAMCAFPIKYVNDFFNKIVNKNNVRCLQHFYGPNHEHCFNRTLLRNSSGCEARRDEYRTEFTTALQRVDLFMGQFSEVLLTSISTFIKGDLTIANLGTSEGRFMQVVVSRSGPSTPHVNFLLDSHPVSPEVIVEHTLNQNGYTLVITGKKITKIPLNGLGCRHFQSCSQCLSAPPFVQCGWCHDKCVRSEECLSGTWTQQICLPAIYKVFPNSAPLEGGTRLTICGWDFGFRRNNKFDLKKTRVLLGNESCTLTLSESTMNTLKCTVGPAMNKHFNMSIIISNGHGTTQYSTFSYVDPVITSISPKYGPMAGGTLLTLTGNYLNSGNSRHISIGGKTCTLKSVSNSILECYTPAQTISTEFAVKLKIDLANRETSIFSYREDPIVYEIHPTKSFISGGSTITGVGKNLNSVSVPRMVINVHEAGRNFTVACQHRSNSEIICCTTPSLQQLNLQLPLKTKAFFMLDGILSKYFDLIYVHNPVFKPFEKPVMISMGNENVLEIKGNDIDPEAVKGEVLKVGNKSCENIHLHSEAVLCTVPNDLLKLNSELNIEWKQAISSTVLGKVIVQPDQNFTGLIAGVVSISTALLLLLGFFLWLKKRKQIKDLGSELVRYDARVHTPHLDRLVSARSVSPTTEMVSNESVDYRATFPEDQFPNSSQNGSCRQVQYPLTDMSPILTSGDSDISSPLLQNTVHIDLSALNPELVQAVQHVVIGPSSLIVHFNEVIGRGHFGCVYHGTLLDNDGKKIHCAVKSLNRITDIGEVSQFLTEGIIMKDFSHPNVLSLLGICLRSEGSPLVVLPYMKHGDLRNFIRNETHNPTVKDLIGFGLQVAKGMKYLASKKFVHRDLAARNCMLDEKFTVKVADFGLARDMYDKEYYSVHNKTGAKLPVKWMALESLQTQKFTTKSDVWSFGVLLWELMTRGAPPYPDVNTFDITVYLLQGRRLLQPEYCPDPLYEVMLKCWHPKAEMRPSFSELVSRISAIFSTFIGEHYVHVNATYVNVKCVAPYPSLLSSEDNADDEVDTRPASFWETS
Sequence of Insulin-like growth factor 1 receptor (Homo sapiens) (P08069 31-736 limits assumed): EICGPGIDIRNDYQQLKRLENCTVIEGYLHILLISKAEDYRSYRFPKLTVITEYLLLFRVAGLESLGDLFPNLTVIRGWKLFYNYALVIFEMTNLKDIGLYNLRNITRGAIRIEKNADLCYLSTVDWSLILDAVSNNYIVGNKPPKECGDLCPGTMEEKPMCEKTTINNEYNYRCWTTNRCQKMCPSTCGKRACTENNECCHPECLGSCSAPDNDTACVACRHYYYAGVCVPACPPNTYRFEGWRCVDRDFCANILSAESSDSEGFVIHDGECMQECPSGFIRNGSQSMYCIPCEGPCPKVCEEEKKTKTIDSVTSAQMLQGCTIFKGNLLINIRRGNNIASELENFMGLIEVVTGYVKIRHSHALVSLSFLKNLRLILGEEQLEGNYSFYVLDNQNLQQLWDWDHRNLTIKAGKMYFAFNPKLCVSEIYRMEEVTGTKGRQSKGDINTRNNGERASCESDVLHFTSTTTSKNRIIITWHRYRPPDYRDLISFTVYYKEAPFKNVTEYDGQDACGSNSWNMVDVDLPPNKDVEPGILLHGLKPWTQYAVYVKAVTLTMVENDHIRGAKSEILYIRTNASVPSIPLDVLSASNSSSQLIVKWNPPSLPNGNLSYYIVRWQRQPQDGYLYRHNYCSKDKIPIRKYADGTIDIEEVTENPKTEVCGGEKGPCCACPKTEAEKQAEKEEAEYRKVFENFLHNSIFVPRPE
Sequence of Insulin-like growth factor 1 receptor (Homo sapiens) (P08069 741-1367 limits assumed): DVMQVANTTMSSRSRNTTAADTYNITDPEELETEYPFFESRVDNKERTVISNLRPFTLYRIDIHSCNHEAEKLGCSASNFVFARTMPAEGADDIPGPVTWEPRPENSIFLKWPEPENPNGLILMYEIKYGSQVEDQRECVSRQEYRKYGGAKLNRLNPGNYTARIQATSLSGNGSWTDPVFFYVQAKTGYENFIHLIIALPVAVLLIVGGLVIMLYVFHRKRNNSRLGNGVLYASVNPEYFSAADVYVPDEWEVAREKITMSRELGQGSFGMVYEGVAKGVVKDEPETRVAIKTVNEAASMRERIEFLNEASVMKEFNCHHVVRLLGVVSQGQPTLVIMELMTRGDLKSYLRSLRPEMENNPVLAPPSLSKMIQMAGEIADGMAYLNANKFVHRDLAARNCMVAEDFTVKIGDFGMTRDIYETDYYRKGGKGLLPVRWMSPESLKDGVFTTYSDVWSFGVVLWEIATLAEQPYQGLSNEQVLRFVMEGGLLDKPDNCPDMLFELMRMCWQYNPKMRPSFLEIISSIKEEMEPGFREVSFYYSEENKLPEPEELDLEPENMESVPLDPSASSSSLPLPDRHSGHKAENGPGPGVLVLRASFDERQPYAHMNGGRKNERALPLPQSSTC
Sequence of Serine/threonine-protein kinase pim-1 (Homo sapiens) (P11309 whole entry, looked up): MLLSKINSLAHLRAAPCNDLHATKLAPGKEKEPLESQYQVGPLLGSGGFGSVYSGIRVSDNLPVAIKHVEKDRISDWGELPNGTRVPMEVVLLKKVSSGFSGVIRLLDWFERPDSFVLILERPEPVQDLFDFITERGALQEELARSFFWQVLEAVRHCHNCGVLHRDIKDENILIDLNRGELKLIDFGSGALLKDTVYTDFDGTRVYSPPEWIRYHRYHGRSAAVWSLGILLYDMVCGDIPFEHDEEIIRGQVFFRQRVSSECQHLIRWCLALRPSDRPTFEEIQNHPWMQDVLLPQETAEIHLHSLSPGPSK
Sequence of Epidermal growth factor receptor (Homo sapiens) (P00533 whole entry): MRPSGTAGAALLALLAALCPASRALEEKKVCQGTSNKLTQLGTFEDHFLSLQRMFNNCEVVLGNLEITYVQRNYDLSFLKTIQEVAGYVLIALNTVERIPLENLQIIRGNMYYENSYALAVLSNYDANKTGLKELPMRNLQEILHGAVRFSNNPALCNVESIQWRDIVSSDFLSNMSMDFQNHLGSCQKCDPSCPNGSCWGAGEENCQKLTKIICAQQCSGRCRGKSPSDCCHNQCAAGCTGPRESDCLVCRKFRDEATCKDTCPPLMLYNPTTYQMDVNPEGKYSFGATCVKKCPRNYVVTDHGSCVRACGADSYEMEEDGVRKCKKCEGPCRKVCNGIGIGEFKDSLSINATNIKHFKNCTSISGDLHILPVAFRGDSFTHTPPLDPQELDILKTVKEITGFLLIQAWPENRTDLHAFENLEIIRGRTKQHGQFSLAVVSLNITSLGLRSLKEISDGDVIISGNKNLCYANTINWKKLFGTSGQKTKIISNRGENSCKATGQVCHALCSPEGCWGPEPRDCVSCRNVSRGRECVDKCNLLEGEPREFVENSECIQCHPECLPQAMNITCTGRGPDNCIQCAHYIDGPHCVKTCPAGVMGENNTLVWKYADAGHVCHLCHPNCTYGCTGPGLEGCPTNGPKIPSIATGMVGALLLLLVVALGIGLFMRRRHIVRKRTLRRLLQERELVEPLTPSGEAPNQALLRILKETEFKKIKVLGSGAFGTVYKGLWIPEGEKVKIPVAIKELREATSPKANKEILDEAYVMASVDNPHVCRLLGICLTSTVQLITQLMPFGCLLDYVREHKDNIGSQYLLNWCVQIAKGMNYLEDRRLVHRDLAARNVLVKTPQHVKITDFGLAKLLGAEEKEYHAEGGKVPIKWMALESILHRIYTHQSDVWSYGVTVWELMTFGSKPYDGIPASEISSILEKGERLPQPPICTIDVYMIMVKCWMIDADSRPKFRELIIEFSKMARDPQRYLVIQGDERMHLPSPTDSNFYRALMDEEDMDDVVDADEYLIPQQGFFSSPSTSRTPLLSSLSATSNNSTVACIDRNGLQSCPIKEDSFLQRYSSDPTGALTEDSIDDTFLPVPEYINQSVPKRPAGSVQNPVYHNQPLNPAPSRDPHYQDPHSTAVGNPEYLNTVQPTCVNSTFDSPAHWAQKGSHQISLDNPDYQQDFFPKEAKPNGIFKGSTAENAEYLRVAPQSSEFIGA
Sequence of RAC-alpha serine/threonine-protein kinase (Homo sapiens) (P31749 whole entry, canonical isoform): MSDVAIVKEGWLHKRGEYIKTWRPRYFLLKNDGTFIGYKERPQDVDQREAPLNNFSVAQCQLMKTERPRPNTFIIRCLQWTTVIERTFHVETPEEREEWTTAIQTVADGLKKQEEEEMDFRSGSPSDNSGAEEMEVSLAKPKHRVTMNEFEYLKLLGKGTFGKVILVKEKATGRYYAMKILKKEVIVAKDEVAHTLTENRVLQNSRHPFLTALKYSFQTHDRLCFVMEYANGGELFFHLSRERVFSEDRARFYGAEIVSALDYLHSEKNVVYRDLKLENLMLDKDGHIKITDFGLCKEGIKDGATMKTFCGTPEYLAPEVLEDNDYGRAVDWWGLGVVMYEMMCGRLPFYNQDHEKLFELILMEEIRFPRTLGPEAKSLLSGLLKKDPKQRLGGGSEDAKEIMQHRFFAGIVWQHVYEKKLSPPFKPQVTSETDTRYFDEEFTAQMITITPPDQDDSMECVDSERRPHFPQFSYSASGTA
Sequence of Casein kinase I isoform alpha (Homo sapiens) (P48729 2-337 limits assumed): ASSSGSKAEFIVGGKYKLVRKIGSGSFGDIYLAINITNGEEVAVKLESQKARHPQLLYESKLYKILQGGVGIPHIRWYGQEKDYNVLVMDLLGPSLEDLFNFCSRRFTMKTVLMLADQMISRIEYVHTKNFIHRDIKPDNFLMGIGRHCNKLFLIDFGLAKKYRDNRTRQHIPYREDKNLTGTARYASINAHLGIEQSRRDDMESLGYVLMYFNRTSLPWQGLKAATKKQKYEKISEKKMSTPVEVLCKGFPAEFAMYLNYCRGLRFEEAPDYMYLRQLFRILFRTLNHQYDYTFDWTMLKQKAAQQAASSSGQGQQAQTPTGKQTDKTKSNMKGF

Cc1c(CN2CCN(S(C)(=O)=O)CC2)nc2c(N3CCOCC3)nc(-c3cnc(N)nc3)cn12
inhibition [1]: < 30%
inhibition [2]: < 30%
inhibition [3]: < 30%
inhibition at 10 µM (CYP3A4): < 30%
inhibition [4]: < 30%
inhibition [5]: < 30%
inhibition [6]: < 30%
inhibition [7]: < 30%
inhibition [8]: < 30%
inhibition [9]: < 30%
inhibition [10]: < 30%
inhibition [11]: < 30%
inhibition [12]: < 30%
inhibition at 10 µM (CYP2D6): < 30%
inhibition [13]: < 30%
remaining at 0.25 h, 1 µM [14]: 80%
inhibition [15]: < 30%
inhibition [16]: < 30%
IC50 [17]: 1260 nM
inhibition at 10 µM (CYP2C9): < 30%
inhibition [18]: < 30%
inhibition [19]: < 30%
inhibition [20]: < 30%
inhibition [21]: < 30%
inhibition [22]: < 30%
inhibition [23]: < 30%
inhibition [24]: < 30%
inhibition [25]: < 30%
inhibition [26]: < 30%
inhibition [27]: < 30%
IC50 [28]: 15.4 nM
inhibition [29]: < 30%

CS(=O)(=O)N1CCN(Cc2cn3cc(-c4cnc(N)nc4)nc(N4CCOCC4)c3n2)CC1
inhibition [1]: < 30%
inhibition [2]: < 30%
inhibition [3]: < 30%
inhibition at 10 µM (CYP3A4): < 30%
inhibition [4]: < 30%
inhibition [5]: < 30%
inhibition [6]: < 30%
inhibition [7]: < 30%
inhibition [8]: < 30%
inhibition [9]: < 30%
inhibition [10]: < 30%
inhibition [11]: < 30%
inhibition [12]: < 30%
inhibition at 10 µM (CYP2D6): < 30%
inhibition [13]: < 30%
remaining at 0.25 h, 1 µM [14]: 88%
inhibition [15]: < 30%
inhibition [16]: < 30%
IC50 [17]: 4880 nM
inhibition at 10 µM (CYP2C9): < 30%
inhibition [18]: < 30%
inhibition [19]: < 30%
inhibition [20]: < 30%
inhibition [21]: < 30%
inhibition [22]: < 30%
inhibition [23]: < 30%
inhibition [24]: < 30%
inhibition [25]: < 30%
inhibition [26]: < 30%
inhibition [27]: < 30%
inhibition [29]: < 30%

Cc1nc(N)ncc1-c1cn2cc(CN3CCN(S(C)(=O)=O)CC3)nc2c(N2CCOCC2)n1
inhibition [1]: < 30%
inhibition [2]: < 30%
inhibition [3]: < 30%
inhibition [4]: < 30%
inhibition [5]: < 30%
inhibition [6]: < 30%
inhibition [7]: < 30%
inhibition [8]: < 30%
inhibition [9]: < 30%
inhibition [10]: < 30%
inhibition [11]: < 30%
inhibition [12]: < 30%
inhibition [13]: < 30%
inhibition [15]: < 30%
inhibition [16]: < 30%
inhibition [18]: < 30%
inhibition [19]: < 30%
inhibition [20]: < 30%
inhibition [21]: < 30%
inhibition [22]: < 30%
inhibition [23]: < 30%
inhibition [24]: < 30%
inhibition [25]: < 30%
inhibition [26]: < 30%
inhibition [27]: < 30%
inhibition [29]: < 30%

CS(=O)(=O)N1CCN(Cc2cn3c(Cl)c(-c4cnc(N)nc4)nc(N4CCOCC4)c3n2)CC1
inhibition [1]: < 30%
inhibition [2]: < 30%
inhibition [3]: < 30%
inhibition at 10 µM (CYP3A4): < 30%
inhibition [4]: < 30%
inhibition [5]: < 30%
inhibition [6]: < 30%
inhibition [7]: < 30%
inhibition [8]: < 30%
inhibition [9]: < 30%
inhibition [10]: < 30%
inhibition [11]: < 30%
inhibition [12]: < 30%
inhibition at 10 µM (CYP2D6): < 30%
inhibition [13]: < 30%
remaining at 0.25 h, 1 µM [14]: 91%
inhibition [15]: < 30%
inhibition [16]: < 30%
IC50 [17]: 5710 nM
inhibition at 10 µM (CYP2C9): < 30%
inhibition [18]: < 30%
inhibition [19]: < 30%
inhibition [20]: < 30%
inhibition [21]: < 30%
inhibition [22]: < 30%
inhibition [23]: < 30%
inhibition [24]: < 30%
inhibition [25]: < 30%
inhibition [26]: < 30%
inhibition [27]: < 30%
IC50 [28]: 5.2 nM
inhibition [29]: < 30%

CS(=O)(=O)N1CCN(Cc2nc3c(N4CCOCC4)nc(-c4cnc(N)nc4)cn3c2Br)CC1
inhibition [1]: < 30%
inhibition [2]: < 30%
inhibition [3]: < 30%
inhibition at 10 µM (CYP3A4): < 30%
inhibition [4]: < 30%
inhibition [5]: < 30%
inhibition [6]: < 30%
inhibition [7]: < 30%
inhibition [8]: < 30%
inhibition [9]: < 30%
inhibition [10]: < 30%
inhibition [11]: < 30%
inhibition [12]: < 30%
inhibition at 10 µM (CYP2D6): < 30%
inhibition [13]: < 30%
remaining at 0.25 h, 1 µM [14]: 43%
inhibition [15]: < 30%
inhibition [16]: < 30%
IC50 [17]: 5100 nM
inhibition at 10 µM (CYP2C9): < 30%
inhibition [18]: < 30%
inhibition [19]: < 30%
inhibition [20]: < 30%
inhibition [21]: < 30%
inhibition [22]: < 30%
inhibition [23]: < 30%
inhibition [24]: < 30%
inhibition [25]: < 30%
inhibition [26]: < 30%
inhibition [27]: < 30%
IC50 [28]: 8.1 nM
inhibition [29]: < 30%
